The text below walks through data of patent US9969723B2, “3-(4-(benzyloxy)phenyl)hex-4-ynoic acid derivative, method of preparing same and pharmaceutical composition for preventing and treating metabolic disease including same as effective ingredient” (HYUNDAI PHARM CO., LTD, priority 2014, dated 2018).

For series [1], the target named is T1, GPR40 (Homo sapiens (Human), UniProt O14842). Description: Calcium flux GPCR agonist assay (Millipore GPCR profiler, FLIPR TETRA). (In general: A change in cytosolic calcium serves as a functional read-out for many receptors and channels.)
T1 sequence (O14842 whole entry): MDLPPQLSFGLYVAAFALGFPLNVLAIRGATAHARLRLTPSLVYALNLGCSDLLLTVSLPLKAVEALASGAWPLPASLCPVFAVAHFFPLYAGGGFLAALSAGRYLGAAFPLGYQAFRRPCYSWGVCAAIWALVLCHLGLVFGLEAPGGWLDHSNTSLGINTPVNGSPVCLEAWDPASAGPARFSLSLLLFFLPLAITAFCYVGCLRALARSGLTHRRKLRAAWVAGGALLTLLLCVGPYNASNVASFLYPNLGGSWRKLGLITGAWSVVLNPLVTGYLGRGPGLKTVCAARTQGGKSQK
Experimental: The compounds of Examples of the invention dissolved in DMSO (dimethyl sulfoxide), PBS (phosphate buffered saline), and DW (distilled water), etc, were diluted three-times with EMD Millipore's GPCR profiler assay buffer. […] Each well was filled with EMD Millipore's GPCR profiler assay buffer. The said EMD Millipore's GPCR profiler assay buffer was HBSS (Hanks Balanced Salt Solution) containing 20 mM HEPES (4-(2-hydroxyethyl)-1-piperazineethanesulfonic acid) and 2.5 mM Probenecid (4-(dipropylsulfamoyl)benzoic acid), whose pH was regulated as 7.4.
The compounds of Examples were duplicated at each concentration. […] Agonist assay was performed by using FLIPR^TETRA. Fluorescence and luminescence baseline were measured. […] To measure the activity of those compounds of Examples, GPCR activity assay was performed for 180 seconds.
When the assay data were not satisfactory, an additional experiment was performed.
All the concentration dependent graphs were made by using GraphPad Prism. The graph was modified by Sigmoidal dose response.
A further series has as its target CYP2C19 (Homo sapiens (Human), UniProt P33261). The experiment in a line: CYP inhibition (BD GENTEST kit). The format is in vitro ADME. The following applies: pH 7.4, read-out: CYP inhibition (%) 2C19. On the procedure:
(§1) CYP is the enzyme involved in drug metabolism. So, the inhibition of this enzyme can change the prediction of dose of a drug and toxicity caused by the co-treatment with other drugs. Therefore, the inventors measured the inhibitory effect of the compounds of Examples of the invention on endogenous CYP3A4, CYP2C9, CYP1A2, CYP2D6, and CYP2C19. […] To prepare the Invitrogen kit, the test sample was diluted in distilled water at 2.5× of the final experimental concentration.
(§2) The test sample for BD GENTEST kit was diluted in acetonitrile at 50× of the final experimental concentration. NADPH-coenzyme mixture was prepared by diluting the coenzyme, G6PDH, and regulatory protein included in the kit with distilled water at the concentration instructed by the kit. The prepared 50× sample (4 μL) and the NADPH-coenzyme mixture (96 μL) were mixed in each well of U-bottom 96-well plate, followed by pre-culture for 10 minutes in a 37° C. incubator. Enzyme/substrate mixed solution was prepared by diluting the buffer (0.5 M potassium phosphate, pH 7.4), each CYP450 enzyme/substrate mixed solution included in the kit with distilled water at the instructed concentration. Upon completion of the pre-culture, 100 μL of the enzyme/substrate mixed solution was added in each well of the plate, followed by culture in a 37° C. incubator for 15 minutes (CYP 1A2), 30 minutes (CYP 3A4 and CYP 2C19) or 1 and half hours (CYP 2C9). […] The values obtained above were converted into % as the inhibition rate of the sample by the value of the non-treated group.

A further series has as its target CYP2C9 (Homo sapiens (Human), UniProt P11712). Description: CYP inhibition (BD GENTEST kit). The format is in vitro ADME. The following applies: pH 7.4, read-out: CYP inhibition (%) 2C9. The protocol:
as §1, §2

For another series, the target named is CYP3A4 (Homo sapiens (Human), UniProt P08684). The experiment in a line: CYP inhibition (BD GENTEST kit). The following applies: pH 7.4, read-out: CYP inhibition (%) 3A4. The format is in vitro ADME. An excerpt:
(§3) CYP is the enzyme involved in drug metabolism. So, the inhibition of this enzyme can change the prediction of dose of a drug and toxicity caused by the co-treatment with other drugs. Therefore, the inventors measured the inhibitory effect of the compounds of Examples of the invention on endogenous CYP3A4, CYP2C9, CYP1A2, CYP2D6, and CYP2C19. At this time, Invitrogen (P2862) was used as the CYP2D6 inhibition kit, and BD GENTEST (459100, 459300, 459400, 459500) was used as the CYP1A2, CYP2C9, CYP2C19, and CYP3A4 inhibition kit. To prepare the Invitrogen kit, the test sample was diluted in distilled water at 2.5× of the final experimental concentration.
The test sample for BD GENTEST kit was diluted in acetonitrile at 50× of the final experimental concentration. NADPH-coenzyme mixture was prepared by diluting the coenzyme, G6PDH, and regulatory protein included in the kit with distilled water at the concentration instructed by the kit. The prepared 50× sample (4 μL) and the NADPH-coenzyme mixture (96 μL) were mixed in each well of U-bottom 96-well plate, followed by pre-culture for 10 minutes in a 37° C. incubator. Enzyme/substrate mixed solution was prepared by diluting the buffer (0.5 M potassium phosphate, pH 7.4), each CYP450 enzyme/substrate mixed solution included in the kit with distilled water at the instructed concentration. Upon completion of the pre-culture, 100 μL of the enzyme/substrate mixed solution was added in each well of the plate, followed by culture in a 37° C. incubator for 15 minutes (CYP 1A2), 30 minutes (CYP 3A4 and CYP 2C19) or 1 and half hours (CYP 2C9). Upon completion of the reaction, the reactant was transferred onto the white plate, and then fluorescence was measured with a microplate reader (CYP 1A2 and CYP 2C19 excitation wavelength: 410 nm, absorption wavelength: 460 nm; CYP 2C9 and CYP 3A4 excitation wavelength: 409 nm, absorption wavelength: 530 nm). The values obtained above were converted into % as the inhibition rate of the sample by the value of the non-treated group.

A further series concerns the target CYP2D6 (Homo sapiens (Human), UniProt P10635). The experiment in a line: CYP inhibition (Invitrogen Vivid kit). It is filed as in vitro ADME. The following applies: probe Vivid CYP450 substrate, read-out: CYP inhibition (%) 2D6.
From the text: as §3
P450 BACULOSOMES® reagent and reproducer (100×) included in Invitrogen kit were diluted in Vivid® CYP450 reaction buffer (2×) at the concentration that matched the target CYP450. The prepared 2.5× sample (80 μL) and the diluted P450 BACULOSOMES® reagent mixture (100 μL) were mixed in each well of U-bottom 96-well plate, followed by pre-culture for 20 minutes. Vivid® CYP450 substrate and NADP+ (100×) were diluted in Vivid® CYP450 reaction buffer (2×) at the concentration that matched the target CYP450 and the substrate. Upon completion of the pre-culture, substrate-NADP (nicotinamide adenine dinucleotide phosphate) mixed solution (20 μL) was added thereto, followed by reaction for 1 hour. Upon completion of the reaction, the reactant was transferred onto the white plate, and then fluorescence was measured with a microplate reader (CYP 2D6 excitation wavelength: 400 nm, absorption wavelength: 502 nm). […]

Series [2] has as its system Male OLETF (Otsuka Long-Evans Tokushima fatty) rats, the type II diabetes animal model (obesity). The experiment in a line: Oral glucose tolerance test (OGTT) 3. It is filed as in vivo, rat. On the procedure: (§4) Male OLETF (Otsuka Long-Evans Tokushima fatty) rats at 29˜30 weeks, the type II diabetes animal model (obesity), were adapted at least for 7 days. Only healthy animals were selected thereafter, followed by OGTT. After fasting for 16˜18 hours, 5 rats per group were randomly selected and orally administered with the compounds prepared in Examples 5, 9, 14, 28, 37, and 47 at the dose of 1˜10 mg/kg. At this time, 5% polyethyleneglycol (PEG) was orally administered at the same dose to the non-treated group rats. 60 minutes after the sample administration, glucose (4 g/kg) was orally administered thereto at the dose of 5 ml/kg. Then, blood glucose was measured by using Accu-chek active strip (Roche diagnostic Co.). The time for the measurement was set at 60 minutes before the glucose administration (−60), 0 minute, 20 minutes, 40 minutes, 60 minutes, and 120 minutes after the glucose administration, and blood glucose was measured through tail vein puncture.

The subject of series [3] is Male Goto-Kakizaki (GK) rats, the type II diabetes animal model (not obesity). The experiment in a line: Oral glucose tolerance test (OGTT) 2. It is filed as in vivo, rat. The protocol:
as §4, with “Goto-Kakizaki (GK)” for “OLETF (Otsuka Long-Evans Tokushima fatty)”, “22˜23” for “29˜30”, “(not obesity),” for “(obesity),”, “0.3˜10” for “1˜10”

The target in the next series is CYP1A2 (Homo sapiens (Human), UniProt P05177). Description: CYP inhibition (BD GENTEST kit). It is filed as in vitro ADME. The following applies: pH 7.4. The protocol:
as §1, §2

The target in series [4] is T1, GPR40. Description: GPR40 protein activity by intracellular calcium concentration (Fluo-4, Flexstation 3) in transfected HEK-293 cells. The format is cell-based. The following applies: HEK-293 cells transfected with human GPR40, intracellular calcium; read-out: EC50.
[5] abbreviates: oral dose 10 mg/kg, values in text.

Each structure is given as a SMILES string. Read-outs that look alike come from different tables or passages of the source. Bounds are passed on as bounds.

CYP2D6, sequence (P10635 whole entry): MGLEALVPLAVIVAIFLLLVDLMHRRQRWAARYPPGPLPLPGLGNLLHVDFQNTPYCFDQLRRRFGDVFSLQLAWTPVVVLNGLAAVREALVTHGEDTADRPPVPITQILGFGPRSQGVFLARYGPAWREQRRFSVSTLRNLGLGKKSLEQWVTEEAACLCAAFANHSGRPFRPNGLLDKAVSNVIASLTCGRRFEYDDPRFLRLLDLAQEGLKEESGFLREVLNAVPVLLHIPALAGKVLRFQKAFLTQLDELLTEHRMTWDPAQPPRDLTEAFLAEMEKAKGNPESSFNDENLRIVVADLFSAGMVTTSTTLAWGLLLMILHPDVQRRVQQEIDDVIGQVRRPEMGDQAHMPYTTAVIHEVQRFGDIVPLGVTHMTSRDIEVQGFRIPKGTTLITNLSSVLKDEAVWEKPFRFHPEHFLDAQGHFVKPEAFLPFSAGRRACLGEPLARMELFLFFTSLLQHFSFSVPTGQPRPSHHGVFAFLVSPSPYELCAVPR
CYP2C9, sequence (P11712 whole entry): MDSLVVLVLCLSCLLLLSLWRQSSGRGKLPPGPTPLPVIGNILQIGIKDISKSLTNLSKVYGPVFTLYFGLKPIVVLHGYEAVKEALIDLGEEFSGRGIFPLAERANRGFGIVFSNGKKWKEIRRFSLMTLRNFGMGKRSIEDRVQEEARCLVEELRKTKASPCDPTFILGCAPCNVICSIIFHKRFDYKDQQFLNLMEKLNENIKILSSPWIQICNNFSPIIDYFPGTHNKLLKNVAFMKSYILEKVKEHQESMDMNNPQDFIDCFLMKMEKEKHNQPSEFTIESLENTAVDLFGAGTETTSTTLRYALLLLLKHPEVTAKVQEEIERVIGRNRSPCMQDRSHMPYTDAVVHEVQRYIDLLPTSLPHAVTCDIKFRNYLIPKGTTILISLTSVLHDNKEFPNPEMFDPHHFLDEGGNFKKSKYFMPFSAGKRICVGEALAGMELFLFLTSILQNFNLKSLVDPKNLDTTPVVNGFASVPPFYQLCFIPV
CYP2C19, sequence (P33261 whole entry): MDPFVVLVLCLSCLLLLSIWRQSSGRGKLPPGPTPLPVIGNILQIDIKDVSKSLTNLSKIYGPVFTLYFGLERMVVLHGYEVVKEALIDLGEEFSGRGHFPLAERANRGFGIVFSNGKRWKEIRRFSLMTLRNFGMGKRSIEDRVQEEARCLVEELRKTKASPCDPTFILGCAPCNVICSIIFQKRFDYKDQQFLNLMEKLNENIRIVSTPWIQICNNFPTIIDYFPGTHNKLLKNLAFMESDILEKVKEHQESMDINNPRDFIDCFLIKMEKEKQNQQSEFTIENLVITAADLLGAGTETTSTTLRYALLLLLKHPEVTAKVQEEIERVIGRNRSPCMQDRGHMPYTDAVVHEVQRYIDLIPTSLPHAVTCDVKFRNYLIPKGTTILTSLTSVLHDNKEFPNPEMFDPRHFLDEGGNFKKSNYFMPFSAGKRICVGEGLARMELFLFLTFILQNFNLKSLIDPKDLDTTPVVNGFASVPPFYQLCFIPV
CYP3A4, sequence (P08684 whole entry): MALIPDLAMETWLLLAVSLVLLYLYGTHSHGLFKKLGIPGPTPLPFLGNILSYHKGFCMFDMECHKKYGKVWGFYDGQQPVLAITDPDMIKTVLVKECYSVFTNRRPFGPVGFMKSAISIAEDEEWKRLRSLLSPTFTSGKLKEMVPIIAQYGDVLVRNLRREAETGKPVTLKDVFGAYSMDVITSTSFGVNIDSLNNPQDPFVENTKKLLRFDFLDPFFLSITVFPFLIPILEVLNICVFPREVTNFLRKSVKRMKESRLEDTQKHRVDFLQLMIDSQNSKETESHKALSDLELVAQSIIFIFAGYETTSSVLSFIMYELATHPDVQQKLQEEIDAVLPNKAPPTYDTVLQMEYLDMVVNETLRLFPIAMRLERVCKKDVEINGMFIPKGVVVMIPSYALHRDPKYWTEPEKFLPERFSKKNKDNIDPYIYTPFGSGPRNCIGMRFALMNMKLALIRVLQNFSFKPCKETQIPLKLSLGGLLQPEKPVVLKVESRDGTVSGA
CYP1A2, sequence (P05177 whole entry): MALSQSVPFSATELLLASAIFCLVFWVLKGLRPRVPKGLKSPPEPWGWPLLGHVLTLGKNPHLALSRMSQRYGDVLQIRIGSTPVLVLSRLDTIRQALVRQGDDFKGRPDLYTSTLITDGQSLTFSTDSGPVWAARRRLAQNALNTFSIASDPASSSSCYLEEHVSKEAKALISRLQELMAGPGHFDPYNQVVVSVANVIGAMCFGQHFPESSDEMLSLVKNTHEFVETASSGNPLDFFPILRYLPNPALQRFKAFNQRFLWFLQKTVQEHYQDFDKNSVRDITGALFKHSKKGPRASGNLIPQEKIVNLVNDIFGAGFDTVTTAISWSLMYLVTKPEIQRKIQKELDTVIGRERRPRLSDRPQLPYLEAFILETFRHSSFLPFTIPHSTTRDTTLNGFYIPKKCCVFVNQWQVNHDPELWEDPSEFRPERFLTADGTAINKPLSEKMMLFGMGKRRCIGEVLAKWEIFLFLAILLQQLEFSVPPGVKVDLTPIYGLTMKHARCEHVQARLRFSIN

What is called EC50 is the concentration needed to bring the measured effect to its halfway point. Take `O=C(O)CCc1ccc(NCc2cccc(Oc3ccccc3)c2)cc1` [Comparative Example 3, 4-(3-phenoxybenzylamino)phenylpropionic acid, reference compound]: the EC50 at GPR40 [1] came to 27 nM.

In general, inhibition refers to the share of the control response that was lost under treatment. As to `CC#C[C@@H](CC(=O)O)c1ccc(OCc2cccc(C3=CCC4(CC3)OCCO4)c2)cc1` [Example 9, L-lysine (3S)-3-(4-(3-(1,4-dioxaspiro[4,5]dec-7-en-8-yl)benzyloxy)phenyl)hex-4-ynoate], the values for the inhibition at 30 min, 10 µM at CYP2C19 (CYP2C19 enzyme of the BD GENTEST CYP2C19 inhibition kit) and on CYP3A4 (CYP3A4 enzyme of the BD GENTEST CYP3A4 inhibition kit) were 3.7% and 15.5%, respectively. At CYP2C9 (CYP2C9 enzyme of the BD GENTEST CYP2C9 inhibition kit), the inhibition at 1.5 h, 10 µM came to 47.1%. Further, on GPR40 [1], the EC50 is < 1 nM. Also, the inhibition at 1 h, 10 µM on CYP2D6 (CYP2D6 P450 BACULOSOMES reagent (Invitrogen kit P2862)) stood at 13.9%. The “% AUC” value in series [2] (oral dose 1 mg/kg) is “B (25.0-35.0%)”; in series [2] (oral dose 3 mg/kg), “A (over 35.0%)”; in [2] (oral dose 10 mg/kg), “A (over 35.0%)”; in series [3] (oral dose 0.3 mg/kg), “C (under 25.0%)”; in series [3] (oral dose 1 mg/kg) it was “C (under 25.0%)”; in [3] (oral dose 3 mg/kg) it was “A (over 35.0%)”. Also, in series [3] (oral dose 10 mg/kg), the “% AUC” value is “A (over 35.0%)”. The “hypoglycemic effect compared with the non-treated group” value in series [2] (setting [5]) was “more than 35.0%”. In series [3] (setting [5]), the “hypoglycemic effect by that of the non-treated group” value was “more than 35.0%”.

With `CC#C[C@@H](CC(=O)O)c1ccc(OCc2ccc(CN3CCN(c4ccc(OC)cc4)CC3)cc2)cc1` [Example 40, (S)-3-(4-(4-((4-(4-methoxyphenyl)piperazine-1-yl)methyl)benzyloxy)phenyl)hex-4-ynoic acid], the values for the inhibition at 30 min, 10 µM at CYP2C19 (CYP2C19 enzyme of BD GENTEST inhibition kit) and on CYP3A4 (CYP3A4 enzyme of BD GENTEST inhibition kit) were 19.5% and 0%, respectively. Besides, the inhibition at 15 min, 10 µM on CYP1A2 amounted to 9.7%. In addition, the inhibition at 1.5 h, 10 µM on CYP2C9 (CYP2C9 enzyme of BD GENTEST inhibition kit) is 18.4%. Besides, the EC50 at GPR40 [4] was 200 to 300 nM. Further, the inhibition at 1 h, 10 µM at CYP2D6 (P450 BACULOSOMES reagent (Invitrogen Vivid CYP2D6 kit P2862)) was 17.9%.
